According to patent US4680382A, “Analogues of actinomycin D” (priority 1986, dated 1987):
*1 amine or outer side, *2 acyl side, *3 side chain or, on linkers, in order; H or OH if unused. Where a SMILES comes first, the peptide text is derived from it. Bridges are numbered along the chain shown (N, C = ends). Roman numbers before positions name the chains, in order. [ ]: non-standard residue; d: D form. Actinocin(9to1) = Cc1c2oc3c(C)ccc(C(=O)[*:1])c3nc-2c(C(=O)[*:2])c(N)c1=O; NMeV = CN[C@H](C(=O)O)C(C)C; Sar = CNCC(=O)O

Columns and labels:
DNA = assay: Thermal denaturation of DNA (ΔTm); type: binding
Method: The "reverse" analogues bind to calf-thymus DNA, but the spectrophotometrically determined binding (Kapp and Bapp, equilibrium binding values) constants are found to be lower than those of AMD. The binding is also measured by thermal denaturation of DNA.
The equilibrium binding constants (Kapp and Bapp) of the "reverse" methyl 7a and the "reverse" phenyl 8a were determined from the Scatchard plots of binding isotherms; the Scatchard plots are produced according to the previously described methods using calf-thymus DNA [Sengupta et al, Biochem. Biophys. Acta 521, 89 (1978)]. The Kapp values are 2.5×10^6 and 2.3×10^6 M^-1, respectively; corresponding Bapp values are 0.038 and 0.036. […] But, these "reverse" analogues associate with DNA less strongly; their frequency of binding is also lower compared to that of AMD. However, the "reverse" analogues fail to cause any measurable change in the ratio of the intrinsic viscosity (γ) of DNA with the increasing ratios of [ligand]/DNA base pair (r), even when low molecular weight DNAs (0.5×10^5 to 1.0×10^5) were employed.
(§1) Melting points are determined on a Thomas-Hoover melting point apparatus at a heating rate of 2° C./min. Thin-layer chromatography was performed on silica gel plates (Brinkmann Instrument Inc.). Solvent systems were (A) EtOAc-acetone (4:1), (B) CHCl3 -MeOH (9:1) and (C) Cifferri, the organic phase of the mixture EtOAc-MeOH-H2 O (20:1:20). High-performance liquid chromatography was carried out on a Varian Model 5020 gradient liquid chromatograph equipped with a CD-111L chromatography data system and fitted with a Varian reversed-phase C18 column with the following solvent systems: I, CH3 CN-5 mM NH4 OAc buffer, pH 6.4 (68:32 isocratic), flow rate 1.5 mL/min; II, 65-95% water-methanol gradient for 70 min, 1 mL/min; III, 10-90% H2 O-MeOH gradient for 120 min, 1 mL/min, with UV-visible variable- and fixed-wavelength dual detectors at 254, 440, 470 and 520 nm. IR spectra were obtained on a Perkin-Elmer Model 237 Infra Cord with KBr micropellets or in chloroform solutions. UV-visible spectra were obtained on a Gilford 250 spectrophorometer, which, with the addition of a base-line reference compensator (Analog Multiplexer 5053) and thermoprogrammer, auto four cell programmer and thermoelectric cell holder 2577, were used to obtain thermal denaturation curves. Specific rotation values were determined in chloroform solutions with a Cary 60 spectropolarimeter. NMR spectra were obtained in a JEOL FQ-90 MHz spectrometer equipped with Fourier transform. EPR spectra analyses were recorded in a Varian E-9 EPR spectrometer. All elemental analyses were within ±0.4%.

P388 cells = assay: Inhibition of DNA synthesis (methyl-[3H]thymidine incorporation) in P388 cells; type: cell-based, murine; conditions: 50% reduction in 1 hr of methyl-[3H]thymidine incorporation, read-out: IC50 DNA synth
Method: Experiments for inhibition of nucleic acid synthesis in tumor cells in vitro were carried out with P388 tumor cells, details of which were reported by Sengupta et al, J. Med. Chem., 18, 1175 (1975). […] AMD-OZLs inhibit either process with equal activity and with the potency of its metabolite 7-hydroxy-AMD.
^c IC50 (DNA) = concentration of inhibitor in μM required to
cause 50% reduction (in 1 hr) in methyl[^3 H]thymidine incorporation
into acid precipitable material with use of P388 cells.

liver microsomes = assay: EPR detection of free-radical intermediates with liver microsomes and NADPH (anaerobic); type: biochemical; conditions: NADPH, potassium phosphate buffer
Method: No free-radical intermediates were detected in the absence of enzyme or substrates.
as §1

[1] = test system: P388 lymphocytic leukemia; assay: In vivo antitumor activity against P388 leukemia; set-up: species or system BDF1 mice; conditions: for surv (surviving mice/total mice at 60 days) / % ILS / MST (range): P388, at optimal dose; for % ILS: 100(T/C - 1); for MST (range): control 11.0 (9-12); for optimal dose: P388, ip, days 1, 5 and 9, optimal nontoxic dose
Method: The analogues were tested for their antitumor activities in P388 lymphocytic leukemia in male BDF1 mice. The tumor was implanted intraperitoneally (ip) with 10^6 cells. The drugs were also administered ip once daily on days 1, 5 and 9, beginning 1 day after tumor transplantation. Analogues were tested over a range of doses, but only the optimal nontoxic doses are listed.
^a 10^6 P388 cells implanted ip on day 0 into groups of eight
BDF1 male mice. Drugs administered ip. MST (range), median survival
time in days (range of individual animal deaths); % ILS, percent increase
in life span, calculated 100(T/C - 1), where T and C are median survival
times of treated and control animals; surv, number of surviving mice/tota

[2] = biological target: T1, NADPH cytochrome P-450 reductase (rat liver microsomes) (Rattus norvegicus, UniProt P00388); assay: Stimulation of NADPH oxidation in rat hepatic microsomal incubations; conditions: for NADPH oxid: 340 nm, 37° C., phenobarbital induced microsomes, mean ± standard error of triplicate, basal 9.11 ± 0.30; for percentage stimulation of NADPH oxidation over basal rate: (drug-stimulated rate - basal rate)/basal rate × 100
T1 sequence (P00388 1-678): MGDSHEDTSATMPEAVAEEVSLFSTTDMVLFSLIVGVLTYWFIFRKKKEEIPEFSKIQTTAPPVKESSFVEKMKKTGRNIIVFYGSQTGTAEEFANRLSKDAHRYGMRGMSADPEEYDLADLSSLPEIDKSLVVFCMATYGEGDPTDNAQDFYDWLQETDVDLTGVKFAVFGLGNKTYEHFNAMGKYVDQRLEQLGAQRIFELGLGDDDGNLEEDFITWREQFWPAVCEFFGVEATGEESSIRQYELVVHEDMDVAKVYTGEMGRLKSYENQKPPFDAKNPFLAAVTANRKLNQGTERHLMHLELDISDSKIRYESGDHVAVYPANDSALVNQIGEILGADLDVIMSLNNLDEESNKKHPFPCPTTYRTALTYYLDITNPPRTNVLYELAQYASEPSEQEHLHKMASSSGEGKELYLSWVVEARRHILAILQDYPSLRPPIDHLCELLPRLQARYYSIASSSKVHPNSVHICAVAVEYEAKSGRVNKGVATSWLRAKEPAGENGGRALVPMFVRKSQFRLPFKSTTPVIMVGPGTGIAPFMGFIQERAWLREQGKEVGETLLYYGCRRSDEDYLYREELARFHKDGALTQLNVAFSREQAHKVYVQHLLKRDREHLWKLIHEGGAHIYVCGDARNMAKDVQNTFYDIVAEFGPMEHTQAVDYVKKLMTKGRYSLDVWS

Structure (SMILES)	ΔTm (DNA melting temperature) (DNA) [°C]	IC50 (P388 cells) [µM]	free-radical intermediate detected by EPR (liver microsomes)	surv (surviving mice/total mice at 60 days) [1]	% ILS [1] [%]	MST (range) [1]	optimal dose [1] [μg/kg per inj]	NADPH oxid [2]	percentage stimulation of NADPH oxidation over basal rate [2] [%]
Cc1nc2c(C(=O)NC3C(=O)NC(C(C)C)C(=O)N4CCCC4C(=O)N(C)CC(=O)N(C)C(C(C)C)C(=O)OC3C)c3nc4c(C(=O)NC5C(=O)NC(C(C)C)C(=O)N6CCCC6C(=O)N(C)CC(=O)N(C)C(C(C)C)C(=O)OC5C)c(N)c(=O)c(C)c-4oc3c(C)c2o1 [7a, 7-Amino-2,9,11-trimethyl-8H-8-oxooxazolo [4,5-b]phenoxazine 4,6-bis[carbonyl-L-threonyl-D-valyl-L-prolylsarcosyl-L-N-methylvaline-(threonine hydroxyl)] lactone]	5.5±0.3	1.01	Free-radical intermediates were also detected	3/8	277	42.5 (39-43) days	450.0	21.3 ± 1.93 nmol min^-1 (mg of protein)^-1	134
Cc1c2oc3c(C)c(O)c(N)c(C(=O)NC4C(=O)NC(C(C)C)C(=O)N5CCCC5C(=O)N(C)CC(=O)N(C)C(C(C)C)C(=O)OC4C)c3nc-2c(C(=O)NC2C(=O)NC(C(C)C)C(=O)N3CCCC3C(=O)N(C)CC(=O)N(C)C(C(C)C)C(=O)OC2C)c(N)c1=O (stereo not drawn) [4a, 7-Hydroxy-8-amino-actinomycin D]	7.9±0.2	1.11	Free-radical intermediates were also detected	4/8	382	52.0 (48-55) days	600.0	64.3 ± 2.11 nmol min^-1 (mg of protein)^-1	606
Cc1nc2c(C(=O)NC3C(=O)NC(C(C)C)C(=O)N4CCCC4C(=O)N(C)CC(=O)N(C)C(C(C)C)C(=O)OC3C)c3nc4c(C(=O)NC5C(=O)NC(C(C)C)C(=O)N6CCCC6C(=O)N(C)CC(=O)N(C)C(C(C)C)C(=O)OC5C)cc(=O)c(C)c-4oc3c(C)c2o1 (stereo not drawn) [9a]				0/0	164	29.0 (19-58) days	1200.0	19.1 ± 1.70 nmol min^-1 (mg of protein)^-1	110
Cc1c2oc3c(C)ccc(C(=O)N[C@@H]4C(=O)N[C@H](C(C)C)C(=O)N5CCC[C@H]5C(=O)N(C)CC(=O)N(C)[C@@H](C(C)C)C(=O)O[C@@H]4C)c3nc-2c(C(=O)N[C@@H]2C(=O)N[C@H](C(C)C)C(=O)N3CCC[C@H]3C(=O)N(C)CC(=O)N(C)[C@@H](C(C)C)C(=O)O[C@@H]2C)c(N)c1=O [AMD, Actinomycin D] (I: T[dV]P[Sar][NMeV] / II: T[dV]P[Sar][NMeV]; ester I:1-I:C, II:1-II:C; linker I:N-II:N via Actinocin(9to1))	7.1±0.15	1.12	free-radical intermediate with broad resonance peaks was detected	1/8	136	26.0 (16-37) days	300.0	10.01 ± 0.90 nmol min^-1 (mg of protein)^-1	9.9
